Results published in ChEMBL document CHEMBL2034842, “Synthesis, anti-Candida activity, and cytotoxicity of new (4-(4-iodophenyl)thiazol-2-yl)hydrazine derivatives” (Eur J Med Chem, 2012).
In brackets after ≈: the same amount, converted by molar mass.

Tests used:
Assay type in all cases: functional
Proteus vulgaris = assay: Antibacterial activity against Proteus vulgaris after 18 to 22 hrs by […]
Enterococcus faecalis = assay: Antibacterial activity against Enterococcus faecalis after 18 to 22 hrs by […]
Staphylococcus warneri = assay: Antibacterial activity against Staphylococcus warneri after 18 to 22 hrs by […]
Staphylococcus aureus = assay: Antibacterial activity against Staphylococcus aureus after 18 to 22 hrs by […]
Klebsiella pneumoniae = assay: Antibacterial activity against Klebsiella pneumoniae after 18 to 22 hrs by […]
Streptococcus pyogenes = assay: Antibacterial activity against Streptococcus pyogenes after 18 to 22 hrs by […]
Candida parapsilosis = assay: Antifungal activity against 4 strains of Candida parapsilosis after 24 hrs by […]; settings: Lodderomyces parapsilosis
[Candida] sake = Antifungal activity against 2 strains of Candida sake after 24 hrs by […]; settings: Fermentozyma sake
Nakaseomyces glabratus = assay: Antifungal activity against 4 strains of Candida glabrata after 24 hrs by […]
Klebsiella aerogenes = assay: Antibacterial activity against Enterobacter aerogenes after 18 to 22 hrs by […]
Candida albicans = assay: Antifungal activity against 10 strains of Candida albicans after 24 hrs by […]
Candida tropicalis = assay: Antifungal activity against 4 strains of Candida tropicalis after 24 hrs by […]
Pichia kudriavzevii = assay: Antifungal activity against 3 strains of Candida krusei after 24 hrs by […]
Escherichia coli = assay: Antibacterial activity against Escherichia coli after 18 to 22 hrs by […]

Row | SMILES | MIC (Proteus vulgaris) [µg/mL] | MIC (Enterococcus faecalis) [µg/mL] | MIC (Staphylococcus warneri) [µg/mL] | MIC (Staphylococcus aureus) [µg/mL] | MIC (Klebsiella pneumoniae) [µg/mL] | MIC (Streptococcus pyogenes) [µg/mL] | MIC (Candida parapsilosis) [µg/mL] | MIC ([Candida] sake) [µg/mL] | MIC (Nakaseomyces glabratus) [µg/mL] | MIC (Klebsiella aerogenes) [µg/mL] | MIC (Candida albicans) [µg/mL] | MIC (Candida tropicalis) [µg/mL] | MIC (Pichia kudriavzevii) [µg/mL] | MIC (Escherichia coli) [µg/mL]
1 | Ic1ccc(-c2csc(NN=C3CCCCCC3)n2)cc1 | 16 (≈ 38.9 µM) | 32 (≈ 77.8 µM) | > 128 | > 128 | > 128 | 32 (≈ 77.8 µM) | 2 (≈ 4.86 µM) | 64 (≈ 156 µM) | 2 (≈ 4.86 µM) | 16 (≈ 38.9 µM) | 0.25 (≈ 0.608 µM) | 0.5 (≈ 1.22 µM) | 64 (≈ 156 µM) | 16 (≈ 38.9 µM)
2 | Ic1ccc(-c2csc(N/N=C/c3ccco3)n2)cc1 | 16 (≈ 40.5 µM) | 32 (≈ 81 µM) | > 128 | > 128 | 32 (≈ 81 µM) | 32 (≈ 81 µM) | 2 (≈ 5.06 µM) | 64 (≈ 162 µM) | 4 (≈ 10.1 µM) | 32 (≈ 81 µM) | 0.5 (≈ 1.27 µM) | 2 (≈ 5.06 µM) | 64 (≈ 162 µM) | 32 (≈ 81 µM)
3 | C/C(=N\Nc1nc(-c2ccc(I)cc2)cs1)c1ccco1 | > 128 | 8 (≈ 19.5 µM) | 32 (≈ 78.2 µM) | 32 (≈ 78.2 µM) | > 128 | 2 (≈ 4.89 µM) | 2 (≈ 4.89 µM) | 128 (≈ 313 µM) | 2 (≈ 4.89 µM) | > 128 | 0.25 (≈ 0.611 µM) | 0.5 (≈ 1.22 µM) | 128 (≈ 313 µM) | > 128
4 | Ic1ccc(-c2csc(N/N=C/c3cccs3)n2)cc1 | > 128 | 32 (≈ 77.8 µM) | 32 (≈ 77.8 µM) | 32 (≈ 77.8 µM) | > 128 | 2 (≈ 4.86 µM) | 2 (≈ 4.86 µM) | 128 (≈ 311 µM) | 4 (≈ 9.73 µM) | > 128 | 2 (≈ 4.86 µM) | 2 (≈ 4.86 µM) | 128 (≈ 311 µM) | > 128
5 | C/C(=N\Nc1nc(-c2ccc(I)cc2)cs1)c1cccs1 | > 128 | > 128 | 32 (≈ 75.2 µM) | 32 (≈ 75.2 µM) | > 128 | > 128 | 0.5 (≈ 1.18 µM) | 4 (≈ 9.4 µM) | 4 (≈ 9.4 µM) | > 128 | 2 (≈ 4.7 µM) | 2 (≈ 4.7 µM) | 2 (≈ 4.7 µM) | > 128
6 | C/C(=N\Nc1nc(-c2ccc(I)cc2)cs1)c1ccccn1 | > 128 | > 128 | > 128 | 32 (≈ 76.1 µM) | 32 (≈ 76.1 µM) | > 128 | 2 (≈ 4.76 µM) | 64 (≈ 152 µM) | 2 (≈ 4.76 µM) | > 128 | 0.25 (≈ 0.595 µM) | 0.5 (≈ 1.19 µM) | 64 (≈ 152 µM) | > 128
7 | Ic1ccc(-c2csc(N/N=C/c3cccnc3)n2)cc1 | > 128 | 32 (≈ 78.8 µM) | > 128 | 32 (≈ 78.8 µM) | > 128 | 32 (≈ 78.8 µM) | 2 (≈ 4.92 µM) | 64 (≈ 158 µM) | 4 (≈ 9.85 µM) | 16 (≈ 39.4 µM) | 2 (≈ 4.92 µM) | 2 (≈ 4.92 µM) | 64 (≈ 158 µM) | 16 (≈ 39.4 µM)
8 | C/C(=N\Nc1nc(-c2ccc(I)cc2)cs1)c1cccnc1 | 16 (≈ 38.1 µM) | 32 (≈ 76.1 µM) | > 128 | > 128 | 32 (≈ 76.1 µM) | 32 (≈ 76.1 µM) | 2 (≈ 4.76 µM) | 64 (≈ 152 µM) | 2 (≈ 4.76 µM) | > 128 | 0.25 (≈ 0.595 µM) | 0.5 (≈ 1.19 µM) | 64 (≈ 152 µM) | 32 (≈ 76.1 µM)
9 | Ic1ccc(-c2csc(N/N=C/c3ccncc3)n2)cc1 | > 128 | 2 (≈ 4.92 µM) | 32 (≈ 78.8 µM) | 32 (≈ 78.8 µM) | > 128 | 2 (≈ 4.92 µM) | 2 (≈ 4.92 µM) | 128 (≈ 315 µM) | 2 (≈ 4.92 µM) | > 128 | 0.25 (≈ 0.615 µM) | 0.5 (≈ 1.23 µM) | 128 (≈ 315 µM) | > 128
10 | Ic1ccc(-c2csc(N/N=C/c3c[nH]c4ccccc34)n2)cc1 | > 128 | 4 (≈ 9 µM) | 32 (≈ 72 µM) | 32 (≈ 72 µM) | > 128 | 4 (≈ 9 µM) | 0.5 (≈ 1.13 µM) | 4 (≈ 9 µM) | 4 (≈ 9 µM) | > 128 | 0.5 (≈ 1.13 µM) | 2 (≈ 4.5 µM) | 4 (≈ 9 µM) | > 128
11 | Ic1ccc(-c2csc(N/N=C/c3ccc4c(c3)OCO4)n2)cc1 | > 128 | 32 (≈ 71.2 µM) | 32 (≈ 71.2 µM) | 32 (≈ 71.2 µM) | > 128 | > 128 | 2 (≈ 4.45 µM) | 4 (≈ 8.9 µM) | 4 (≈ 8.9 µM) | > 128 | 2 (≈ 4.45 µM) | 2 (≈ 4.45 µM) | 2 (≈ 4.45 µM) | > 128
12 | C/C(=N\Nc1nc(-c2ccc(I)cc2)cs1)c1ccc2ccccc2c1 | 16 (≈ 34.1 µM) | 4 (≈ 8.52 µM) | 4 (≈ 8.52 µM) | 8 (≈ 17 µM) | 16 (≈ 34.1 µM) | 8 (≈ 17 µM) | 2 (≈ 4.26 µM) | 64 (≈ 136 µM) | 4 (≈ 8.52 µM) | 16 (≈ 34.1 µM) | 2 (≈ 4.26 µM) | 2 (≈ 4.26 µM) | 64 (≈ 136 µM) | 16 (≈ 34.1 µM)
13 | C/C(=N\Nc1nc(-c2ccc(I)cc2)cs1)c1cc2ccccc2oc1=O | > 128 | 8 (≈ 16.4 µM) | 4 (≈ 8.21 µM) | 32 (≈ 65.7 µM) | > 128 | 4 (≈ 8.21 µM) | 2 (≈ 4.1 µM) | 4 (≈ 8.21 µM) | 4 (≈ 8.21 µM) | > 128 | 2 (≈ 4.1 µM) | 2 (≈ 4.1 µM) | 2 (≈ 4.1 µM) | 16 (≈ 32.8 µM)
